# Results reported in article PMC11879040, “Advancing systemic toxicity risk assessment: Evaluation of a NAM-based toolbox approach” (Toxicological Sciences, 2024).
# Where two headings read alike, the source gives them in different places.
# Assays:
# [1] = system: Gamma-aminobutyric acid receptor subunit alpha-1 BZD site, GABRA1A (r); type: binding, rat; settings: control diazepam
# [2] = target: T1, Adenosine receptor A2a, ADORA2A (h) (Homo sapiens, UniProt P29274); test: IPP ADORA2A binding (agonist radioligand); settings: control NECA
# T1 construct: purchased Eurofins Cerep (SafetyScreen44-based IPP panel)
# [3] = target: T2, Estrogen receptor, ER1 (h) (Homo sapiens, UniProt P03372); test: IPP ER1 coactivator recruitment (agonist); type: biochemical; settings: estriol
# T2 construct: purchased Eurofins Cerep (SafetyScreen44-based IPP panel)
# T2 sequence (P03372 1-595): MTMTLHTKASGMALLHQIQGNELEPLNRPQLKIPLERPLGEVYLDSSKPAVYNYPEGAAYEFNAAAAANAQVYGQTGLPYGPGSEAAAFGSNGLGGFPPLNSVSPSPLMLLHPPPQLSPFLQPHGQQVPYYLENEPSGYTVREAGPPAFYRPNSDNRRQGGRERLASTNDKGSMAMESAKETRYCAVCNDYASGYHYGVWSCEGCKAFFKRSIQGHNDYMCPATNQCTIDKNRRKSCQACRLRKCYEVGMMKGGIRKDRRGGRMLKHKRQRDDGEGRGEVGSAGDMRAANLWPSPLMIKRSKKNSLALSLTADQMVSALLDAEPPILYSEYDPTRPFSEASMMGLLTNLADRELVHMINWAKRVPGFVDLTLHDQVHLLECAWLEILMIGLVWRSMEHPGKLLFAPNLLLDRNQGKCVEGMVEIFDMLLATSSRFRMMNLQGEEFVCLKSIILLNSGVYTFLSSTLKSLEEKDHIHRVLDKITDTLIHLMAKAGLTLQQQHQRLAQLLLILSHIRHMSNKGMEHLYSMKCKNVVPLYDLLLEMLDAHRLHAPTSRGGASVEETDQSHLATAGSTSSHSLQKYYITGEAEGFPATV
# [4] = target: T2, Estrogen receptor, ER1 (h); test: IPP ER1 coactivator recruitment (antagonist); type: biochemical; settings: estriol
# [5] = system: Thyroid hormone receptor alpha, THRA (h); test: IPP THRA coactivator recruitment (agonist); type: biochemical, human; settings: agonist, T3
# Tubulin (r) = test: IPP Tubulin binding; parameters: species or system rat; settings: ligand/control Colchicine
# HepG2 cells [6] = test: Cell stress panel (CSP), 24 h, 8 concentrations, BIFROST global PoD; type: cell-based; settings: HepG2; cell stress panel PoD
# Description: Compounds were tested using the previously developed cell stress panel ([Hatherell et al. 2020]) and the expanded biomarker panel outlined in Middleton et al. HepG2 cells were treated with all compounds for 24 h across 8 concentrations prior to biomarker analysis. The same plate layout and number of replicates (3 biological and 2 technical) were used as previously for each assay within the panel.
# HepG2 cells [7] = test: High-throughput transcriptomics (HTTr, TempO-Seq), HepG2, 24 h; type: cell-based, human; settings: HepG2; for pod_httr_bifrost PoD: HTTr BIFROST PoD; for podl_path_minbmd PoD: HTTr minimum pathway BMD(L)
# Description: (§1) HepG2, HepaRG, and MCF7 cells were treated with each compound for 24 h across a dose range of 7 concentrations and lysed using TempO-Seq lysis buffer (BioSpyder Technologies, proprietary kit, see [Middleton et al. 2022] for method details). Sequencing was performed using TempO-Seq (BioClavis) version 2 of the human whole transcriptome panel and analyzed as described previously in Middleton et al.
# HepaRG cells = test: High-throughput transcriptomics (HTTr, TempO-Seq), HepaRG, 24 h; type: cell-based, human; settings: HepaRG; for pod_httr_bifrost PoD: HTTr BIFROST PoD; for podl_path_minbmd PoD: HTTr minimum pathway BMD(L)
# Description: as §1
# MCF7 cells = test: High-throughput transcriptomics (HTTr, TempO-Seq), MCF7, 24 h; type: cell-based, human; settings: MCF-7; for pod_httr_bifrost PoD: HTTr BIFROST PoD; for podl_path_minbmd PoD: HTTr minimum pathway BMD(L)
# Description: as §1
# [8] = PBK model plasma Cmax estimate (Gastroplus 9.8; levels L1, L2, L3); parameters: species or system human; settings: therapeutic uses
# [9] = system: 63 targets with known safety liabilities; test: In vitro pharmacological profiling (IPP) panel, screening at 10 or 100 µM and dose response, minimum IC50/AC50; type: biochemical; settings: lowest AC50 across IPP panel (systemic targets); cell_type -; read-out: ipp_lowest_ac50_systemic PoD
# [10] = system: Glutamate receptor ionotropic NMDA 1 non-selective, GRIN1 (r); settings: control CGS 19755
# [11] = target: T3, Pregnane X receptor PXR, NR1I2 (h) (Homo sapiens, UniProt O75469)
# T3 sequence (O75469 1-434): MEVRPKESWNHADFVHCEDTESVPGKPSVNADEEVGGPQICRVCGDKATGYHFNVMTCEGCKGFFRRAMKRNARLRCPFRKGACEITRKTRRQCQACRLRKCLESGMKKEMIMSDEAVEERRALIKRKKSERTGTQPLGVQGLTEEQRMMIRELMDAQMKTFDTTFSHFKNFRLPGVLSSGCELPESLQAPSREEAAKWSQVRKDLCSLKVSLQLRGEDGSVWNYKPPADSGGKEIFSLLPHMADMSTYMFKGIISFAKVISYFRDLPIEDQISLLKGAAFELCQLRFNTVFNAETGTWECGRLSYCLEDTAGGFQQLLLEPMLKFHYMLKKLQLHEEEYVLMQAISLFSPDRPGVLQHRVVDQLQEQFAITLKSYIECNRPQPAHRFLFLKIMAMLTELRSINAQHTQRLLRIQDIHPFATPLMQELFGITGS
# [12] = human
# rat = settings: rat, ref ToxRefDB/Paul-Friedman et al. (2020)/regulatory opinions, cited from earlier work
# [13] = cited from earlier work
# [14] = at the given pH, single value or median, cited from earlier work
# [15] = PBK level L2; taken or scaled from references (median where several); ref [6],[7],[10],[19]; cited from earlier work
# [16] = hepatic intrinsic clearance (Clint); settings: PBK level L3; optimised against clinical data; per chemical [8],[9],[14],[16],[22],[24],[25],[29],[30],[32]
# [17] = Assignment of risk classifications to benchmark chemical-exposure scenarios; settings: for risk: from table S1
# [18] = system: Potassium Voltage-Gated Channel Kv non-selective, KCNQ1 (r); test: IPP KCNQ1 binding (antagonist radioligand); parameters: species or system rat; settings: IPP screening at 100 uM; control α-dendrotoxin
# [19] = system: Sodium channel protein type 5 subunit alpha (site 2), SCN5A (r); type: binding, rat; settings: IPP screening at 100 uM; control veratridine
# [20] = target: Potassium voltage-gated channel subfamily H member 2 hERG, KCNH2 (h) (Homo sapiens, UniProt Q12809); settings: human
# [21] = PBK input, ref [11], cited from earlier work
# [22] = PBK input, levels L2/L3; ref [5]; cited from earlier work
# [23] = unbound fraction in plasma (fup); settings: PBK input, levels L2/L3; median of [2] internal data (unpublished) and [10]
# [24] = Oral 200 mg solution, fasted, 23 healthy male, validation, ref Huang et al. 1986
# [25] = Oral 200 mg suspension, fasted, 23 healthy male, validation, ref Huang et al. 1986
# [26] = Oral 200 mg tablet, fasted, 23 healthy male, validation, ref Huang et al. 1986
# [27] = Oral 200 mg tablet, fed, 6 healthy male, calibration, ref Daneshmend et al. 1981
# [28] = Oral 200 mg tablet, fed, 8 healthy male, validation, ref Daneshmend et al. 1983
# [29] = 100 uM, * denotes assay interference (2-Amino-6-chloro-4-nitrophenol, HC Red 3)
# T1 sequence (P29274 whole entry): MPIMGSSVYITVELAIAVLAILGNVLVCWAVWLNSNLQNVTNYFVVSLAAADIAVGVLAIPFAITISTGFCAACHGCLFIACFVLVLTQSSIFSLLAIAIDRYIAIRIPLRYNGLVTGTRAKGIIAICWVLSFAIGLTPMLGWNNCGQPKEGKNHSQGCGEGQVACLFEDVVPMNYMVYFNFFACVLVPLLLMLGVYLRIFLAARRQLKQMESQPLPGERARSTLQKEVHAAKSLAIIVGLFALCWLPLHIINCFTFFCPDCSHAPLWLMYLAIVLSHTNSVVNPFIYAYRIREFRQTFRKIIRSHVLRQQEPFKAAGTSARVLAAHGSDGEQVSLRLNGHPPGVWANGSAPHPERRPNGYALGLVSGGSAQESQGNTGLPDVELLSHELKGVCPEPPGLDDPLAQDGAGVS
# Potassium voltage-gated channel subfamily H member 2 hERG, KCNH2 (h), sequence (Q12809 whole entry): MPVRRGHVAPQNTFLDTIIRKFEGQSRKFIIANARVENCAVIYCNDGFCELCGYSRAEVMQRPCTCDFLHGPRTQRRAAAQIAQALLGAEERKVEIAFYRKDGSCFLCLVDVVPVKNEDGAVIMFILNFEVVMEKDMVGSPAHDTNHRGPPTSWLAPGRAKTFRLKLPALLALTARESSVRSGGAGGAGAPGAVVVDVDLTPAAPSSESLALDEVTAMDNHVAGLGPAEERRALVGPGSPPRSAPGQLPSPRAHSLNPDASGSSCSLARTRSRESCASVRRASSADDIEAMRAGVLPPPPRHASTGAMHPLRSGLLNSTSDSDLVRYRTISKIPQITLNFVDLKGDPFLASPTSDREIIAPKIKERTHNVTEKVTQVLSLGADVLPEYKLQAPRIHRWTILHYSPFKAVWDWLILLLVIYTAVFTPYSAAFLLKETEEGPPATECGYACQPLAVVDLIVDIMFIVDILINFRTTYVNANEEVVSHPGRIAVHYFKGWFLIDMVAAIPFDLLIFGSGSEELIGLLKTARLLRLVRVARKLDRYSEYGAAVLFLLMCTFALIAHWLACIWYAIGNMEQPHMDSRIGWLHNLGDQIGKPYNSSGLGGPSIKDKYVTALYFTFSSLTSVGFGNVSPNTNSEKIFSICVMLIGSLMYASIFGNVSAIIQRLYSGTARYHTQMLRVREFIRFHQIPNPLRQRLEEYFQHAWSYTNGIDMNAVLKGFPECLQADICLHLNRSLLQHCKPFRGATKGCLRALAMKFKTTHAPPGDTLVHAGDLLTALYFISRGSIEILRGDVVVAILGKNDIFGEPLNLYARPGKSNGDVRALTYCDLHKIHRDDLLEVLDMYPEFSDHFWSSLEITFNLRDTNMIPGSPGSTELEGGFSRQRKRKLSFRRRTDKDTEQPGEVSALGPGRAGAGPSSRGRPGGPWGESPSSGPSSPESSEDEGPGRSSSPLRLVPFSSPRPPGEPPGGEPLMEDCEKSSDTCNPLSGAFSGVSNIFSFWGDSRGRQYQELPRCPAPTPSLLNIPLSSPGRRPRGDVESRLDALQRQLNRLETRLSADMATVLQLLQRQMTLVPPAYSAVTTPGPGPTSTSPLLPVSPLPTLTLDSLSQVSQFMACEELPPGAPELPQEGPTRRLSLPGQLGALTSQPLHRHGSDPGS
smiles,measurement,setting,value
"CC(=O)N1CCN(c2ccc(OC[C@H]3CO[C@](Cn4ccnc4)(c4ccc(Cl)cc4Cl)O3)cc2)CC1 [Ketoconazole, 1-{4-[4-({(2R,4S)-2-(2,4-Dichlorophenyl)-2-[(1H-imidazol-1-yl)methyl]-1,3-dioxolan-4-yl}methoxy)phenyl]piperazin-1-yl}ethan-1-one]",Specific binding,[1]; IPP screening at 10 uM,15.5%
same,Specific binding,[2]; IPP screening at 10 uM,2.1%
same,"IPP screening %, Coactivator recruitment",[3]; 10 uM,-1.0%
same,"IPP screening %, Coactivator recruitment",[4]; 10 uM,24.0%
same,"IPP screening %, Coactivator recruitment",[5]; 10 uM,1.0%
same,"IPP screening %, Specific binding",Tubulin (r); 10 uM,-15.0%
same,pod_cell_stress PoD,HepG2 cells [6],0.1454 µM
same,pod_httr_bifrost PoD,HepG2 cells [7],0.0007156 µM
same,podl_path_minbmd PoD,HepG2 cells [7],0.9153 µM
same,pod_httr_bifrost PoD,HepaRG cells,0.01699 µM
same,podl_path_minbmd PoD,HepaRG cells,0.1535 µM
same,pod_httr_bifrost PoD,MCF7 cells,0.1915 µM
same,podl_path_minbmd PoD,MCF7 cells,0.1648 µM
same,underprediction of the L3 result at L2 (Cmax),[8],≥ 5 fold
same,AC50,[9],380 nM
same,Specific binding,[10]; IPP screening at 10 uM,2.7%
same,IPP Dose Response PoD: PXR antagonist,[11],"[7.8,21.8]"
same,Fup,[12],0.1%
same,PoD (NOEL),"rat; 28 days, changes in thyroid hormone levels",6.25 mg/kg bw/day
same,Reported AUC0-t,[13]; [24],18170 ng·h/mL
same,Reported cmax,[13]; [24],5.16 µg/mL
same,Reported tmax,[13]; [24],1 h
same,Reported AUC0-t,[13]; [25],15730 ng·h/mL
same,Reported cmax,[13]; [25],4.66 µg/mL
same,Reported tmax,[13]; [25],1 h
same,Reported AUC0-t,[13]; [26],14740 ng·h/mL
same,Reported cmax,[13]; [26],3.26 µg/mL
same,Reported tmax,[13]; [26],2 h
same,Reported AUC0-t,[13]; [27],16940 ng·h/mL
same,Reported cmax,[13]; [27],3.573 µg/mL
same,Reported tmax,[13]; [27],2.475 h
same,Reported AUC0-t,[13]; [28],10330 ng·h/mL
same,Reported cmax,[13]; [28],3.636 µg/mL
same,Reported tmax,[13]; [28],1.28 h
same,Aqueous Solubility,"[14]; PBK level L2, ref [1],[4],[5],[10],[11],[17],[26]",42 µg/mL
same,Aqueous Solubility,"[14]; PBK level L3, ref [4],[5],[10],[11]",42 µg/mL
same,Intrinsic Liver Clearance,[15],1620.2 L/h
same,Intrinsic Liver Clearance,[16],10077 L/h
same,risk,"[17]; Dermal, Therapeutic, 2% daily, Shampoo, Exp2",0
same,risk,"[17]; Dermal, Therapeutic, 2% twice weekly, Shampoo, Exp1",0
same,risk,"[17]; Oral, 200 mg/day for fungal infection, Tablet, Exp4",1
same,risk,"[17]; Oral, Therapeutic, 1200mg/day, Tablet, Exp3",1
"CC(C)[C@H](N)C(=O)O [L-valine, L-Valine]",Specific binding,[18],15.0%
same,Specific binding,[1]; IPP screening at 100 uM,1.9%
same,Specific binding,[19],12.2%
same,Specific binding,[2]; IPP screening at 100 uM,-4.2%
same,"IPP screening %, Coactivator recruitment",[3]; [29],0.0%
same,"IPP screening %, Coactivator recruitment",[4]; [29],-2.0%
same,"IPP screening %, Coactivator recruitment",[5]; [29],2.0%
same,"IPP screening %, Specific binding",Tubulin (r); 100 uM,2.0%
same,pod_cell_stress PoD,HepG2 cells [6],39.7854 µM
same,pod_httr_bifrost PoD,HepG2 cells [7],316.528 µM
same,podl_path_minbmd PoD,HepG2 cells [7],625 µM
same,pod_httr_bifrost PoD,HepaRG cells,162.177 µM
same,podl_path_minbmd PoD,HepaRG cells,351.712 µM
same,pod_httr_bifrost PoD,MCF7 cells,26.9475 µM
same,podl_path_minbmd PoD,MCF7 cells,43.6766 µM
same,Specific binding,[10]; IPP screening at 100 uM,0.4%
same,"IPP screening %, Specific binding",[20],-3.8%
same,logP,physchem,-2.21
same,PoD (NOAEL),rat; repeat dose,666 mg/kg bw/day
same,pKa Value ACID,[21]; level L2,2.3
same,pKa Value BASE,[21]; levels L2/L3,9.55
same,Risk Classification,[17]; Oral 26 mg/kg bw/day,Low risk
same,Risk Classification,[17]; Oral 4000 mg/day,Low risk
same,risk,"[17]; Oral, 26 mg/kg mean requirements, Tablet, Exp1",0
same,risk,"[17]; Oral, Dietary 4000 mg/day, Food & Drink, Exp2",0
CN(C)[C@@H]1C(O)=C(C(N)=O)C(=O)[C@@]2(O)C(O)=C3C(=O)c4c(O)cccc4[C@@](C)(O)[C@H]3[C@H](O)[C@@H]12 [Oxytetracycline],logP/D,[22],-1.307
same,Fup,[23],68.88%
